Laboratory results published in the NIST ThermoML archive (doi:10.1021/acs.jced.6b00168).
“And” between values parts separate entries of the source, which are not always exact repeats. Equal entries are not always repeated.

Assays:
[1] = mn = molality of the nth substance listed, in mol/kg; conditions: 100 kPa, Liquid; for speed of sound: Frequency=3 MHz, Sing-around technique in a fixed-path interferometer; for mass density: Vibrating tube method
[2] = 298.15 K; 100 kPa; Liquid; Frequency=3 MHz; Sing-around technique in a fixed-path interferometer

O=C(N[C@H](CO)[C@H](O)c1ccc([N+](=O)[O-])cc1)C(Cl)Cl + O
[1]
Conditions | mass density, 288.15 K [kg/m3] | mass density, 298.15 K [kg/m3] | mass density, 308.15 K [kg/m3] | mass density, 318.15 K [kg/m3] | speed of sound, 288.15 K [m/s] | speed of sound, 298.15 K [m/s] | speed of sound, 308.15 K [m/s] | speed of sound, 318.15 K
m1 = 0.0005 | 999.273 | 997.209 | 994.205 | 990.372 | 1466.9 | 1496 | 1519.6 | 1536.2 m/s
m1 = 0.001 | 999.429 | 997.363 | 994.356 | 990.522 | 1467 | 1496.1 | 1519.7 | 1536.4 m/s
m1 = 0.002 | 999.643 | 997.576 | 994.56 | 990.713 | 1467.1 | 1496.2 | 1519.9 | 1536.8 m/s and 1536.5 m/s
m1 = 0.004 | 999.922 | 997.847 | 994.831 | 990.992 | 1467.5 | 1496.7 | 1520.2 | 1536.8 m/s

O [water]
Conditions | speed of sound [m/s]
[2] | 1495.9
